Data: paper PMC10301845, “Characterization of a Novel M4 PAM PET Radioligand [11C]PF06885190 in Nonhuman Primates (NHP)” (Molecules, 2023)

Tests used:
M4 [1] = molecular target: T1, M4 (Homo sapiens, UniProt P08173); assay: human M4 binding affinity (evaluated by Pfizer); conditions: identified and evaluated by Pfizer
T1 sequence (P08173 1-479): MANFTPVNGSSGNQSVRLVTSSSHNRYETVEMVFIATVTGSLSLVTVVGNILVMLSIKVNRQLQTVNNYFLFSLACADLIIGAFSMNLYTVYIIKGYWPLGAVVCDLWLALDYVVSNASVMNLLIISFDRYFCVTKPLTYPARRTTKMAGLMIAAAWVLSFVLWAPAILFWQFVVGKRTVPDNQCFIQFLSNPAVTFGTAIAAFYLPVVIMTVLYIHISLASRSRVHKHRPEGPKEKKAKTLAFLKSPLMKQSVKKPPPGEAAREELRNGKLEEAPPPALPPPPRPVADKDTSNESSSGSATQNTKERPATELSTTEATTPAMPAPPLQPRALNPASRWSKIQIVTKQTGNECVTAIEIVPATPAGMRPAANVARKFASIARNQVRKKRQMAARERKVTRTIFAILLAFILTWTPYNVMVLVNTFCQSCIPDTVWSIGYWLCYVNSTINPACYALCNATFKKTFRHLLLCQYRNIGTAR

M4 [2] = molecular target: T2, M4 (Rattus norvegicus, UniProt P08485); assay: rat M4 binding affinity (evaluated by Pfizer); conditions: identified and evaluated by Pfizer
T2 sequence (P08485 1-478): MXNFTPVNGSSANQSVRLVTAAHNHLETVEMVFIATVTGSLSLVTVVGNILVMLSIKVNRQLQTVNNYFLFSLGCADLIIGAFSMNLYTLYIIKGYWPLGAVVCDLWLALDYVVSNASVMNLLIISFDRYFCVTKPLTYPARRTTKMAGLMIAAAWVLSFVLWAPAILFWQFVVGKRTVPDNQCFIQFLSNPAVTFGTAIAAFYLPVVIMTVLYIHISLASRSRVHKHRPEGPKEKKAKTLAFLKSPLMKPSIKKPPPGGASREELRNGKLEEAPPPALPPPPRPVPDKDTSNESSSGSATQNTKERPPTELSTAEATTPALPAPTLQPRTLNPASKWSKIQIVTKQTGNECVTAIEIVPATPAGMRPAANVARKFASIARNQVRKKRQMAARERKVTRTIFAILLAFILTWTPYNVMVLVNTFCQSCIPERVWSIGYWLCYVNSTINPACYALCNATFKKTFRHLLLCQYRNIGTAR

CNc1nc(C)c(C)c2c1CN(C(=O)C[C@H]1C[C@@H]1c1ccc(F)nc1)C2 [PF06885190, 1-(6,7-dimethyl-4-(methylamino)-1,3-dihydro-2H-pyrrolo [3,4-c]pyridin-2-yl)-2-((1R,2S)-2-(6-fluoropyridin-3-yl)cyclopropyl)ethan-1-one]
Ki (M4 [1]): 0.16 nM
Ki (M4 [2]): 7.15 nM
